Each structure is given as a SMILES string.

The assay concerns the target T1, USP28 (His-tagged USP28-FL-mammalian) (Homo sapiens, UniProt Q96RU2).
T1 construct: Expression of USP28 (1-1077)-TEV-6*His (pTT5 vector); made in house; host or cells: Expi293f cells (pTT5 vector)
T1 sequence (Q96RU2 1-1077): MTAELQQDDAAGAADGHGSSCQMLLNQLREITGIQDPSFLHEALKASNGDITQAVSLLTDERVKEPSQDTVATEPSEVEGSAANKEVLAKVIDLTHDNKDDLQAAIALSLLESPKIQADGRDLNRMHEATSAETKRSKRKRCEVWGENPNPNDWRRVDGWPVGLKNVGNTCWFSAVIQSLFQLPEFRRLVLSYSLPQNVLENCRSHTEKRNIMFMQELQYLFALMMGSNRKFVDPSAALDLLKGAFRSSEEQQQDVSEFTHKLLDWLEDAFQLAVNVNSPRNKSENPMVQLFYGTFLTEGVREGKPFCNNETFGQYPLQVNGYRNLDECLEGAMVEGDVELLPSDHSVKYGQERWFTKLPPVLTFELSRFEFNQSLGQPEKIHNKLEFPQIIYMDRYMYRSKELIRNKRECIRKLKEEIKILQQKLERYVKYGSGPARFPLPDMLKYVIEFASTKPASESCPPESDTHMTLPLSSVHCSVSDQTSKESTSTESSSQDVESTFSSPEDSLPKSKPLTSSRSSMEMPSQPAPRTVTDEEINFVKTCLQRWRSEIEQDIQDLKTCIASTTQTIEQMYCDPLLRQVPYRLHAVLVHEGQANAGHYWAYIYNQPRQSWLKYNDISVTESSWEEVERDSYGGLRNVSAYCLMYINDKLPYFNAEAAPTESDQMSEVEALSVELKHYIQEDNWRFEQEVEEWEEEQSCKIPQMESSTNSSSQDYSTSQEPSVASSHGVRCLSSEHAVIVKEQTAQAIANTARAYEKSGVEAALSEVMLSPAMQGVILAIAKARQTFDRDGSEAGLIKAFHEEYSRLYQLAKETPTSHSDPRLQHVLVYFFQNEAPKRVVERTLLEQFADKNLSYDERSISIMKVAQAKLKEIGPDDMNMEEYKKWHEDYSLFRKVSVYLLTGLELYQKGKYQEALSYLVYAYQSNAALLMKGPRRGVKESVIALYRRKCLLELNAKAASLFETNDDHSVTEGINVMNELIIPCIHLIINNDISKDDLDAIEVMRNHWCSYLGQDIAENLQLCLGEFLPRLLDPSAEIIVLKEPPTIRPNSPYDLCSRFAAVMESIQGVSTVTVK
The assay can be described thus: Ubiquitin-Rhodamine 110 Assay for USP28 Activity, Example A-1(a). Type of assay: biochemical. The note with it: Ub-Rh110 assay, Example A-1(a); read-out: USP28 A-1(a) IC50 range. The gist of the method: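 Full-length His-tagged USP28 (1-1077, Expi293F-expressed; […]) was preincubated 30 min with compound (25 μM–1.3 nM, 10-point 3-fold) in 20 mM Tris-HCl pH 8.0, 3 mM BME, 0.03% BGG, 0.01% Triton X-100. Ub-Rh110 (25 nM) was then added for 45 min at room temperature, stopped with citric acid, and read by fluorescence (485/535 nm).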
Turning to `Cc1cc(C)c2c(N)c(C(=O)N[C@H]3COc4cc(N5CC6CNCC(C5)O6)ccc4C3)sc2n1` [Example 2-20, N-((3R)-7-(9-oxa-3,7-diazabicyclo[3.3.1]nonan-3-yl)chroman-3-yl)-3-amino-4,6-dimethylthieno[2,3-b]pyridine-2-carboxamide], the IC50 (commonly the concentration needed to halve the response being measured) fell in the range of 1 to 50 nM.
For `Cc1ccc2c(N)c(C(=O)N[C@H]3COc4cc(N5CC6CC(C5)N6)ccc4C3)sc2n1` [Example 2-2, N-((3R)-7-(3,6-diazabicyclo[3.1.1]heptan-3-yl)chroman-3-yl)-3-amino-6-methylthieno[2,3-b]pyridine-2-carboxamide], the IC50 lay within 1 to 50 nM.
The same measure for `Cc1nc2sc(C(=O)N[C@H]3COc4cc(N5CC6CCC(C5)N6)cc(F)c4C3)c(N)c2s1` (single isomer, unassigned) [Example 1-39]: 1 to 50 nM.
The same measure for `Cc1cnc2c(N)c(C(=O)N[C@@H]3CCc4cc(N5CCNCC5)c(C)cc4C3)sc2n1` (single isomer, unassigned) [Example 2-35]: greater than 2000 nM.
To `Cc1ccc2c(N)c(C(=O)N[C@@H]3COc4cc(N5CC6CC(C5)N6)ccc4C3)sc2n1` [Example 2-3, N-((3S)-7-(3,6-diazabicyclo[3.1.1]heptan-3-yl)chroman-3-yl)-3-amino-6-methylthieno[2,3-b]pyridine-2-carboxamide] belongs 200 to 2000 nM; to `Cc1ccc2c(N)c(C(=O)N[C@H]3COc4cc(N5CCN[C@H](C)[C@H]5C)ccc4C3)sc2n1` (single isomer, unassigned) [Example 1-11], 1 to 50 nM; to `Cc1ccc2c(N)c(C(=O)N[C@@H]3COc4cc(N5CCN[C@@H](C)[C@@H]5C)ccc4C3)sc2n1` (single isomer, unassigned) [Example 1-14], 50 to 200 nM.
As for `Cc1ccc2c(N)c(C(=O)N[C@H]3COc4cc(N5CC6CNCC(C5)C6(F)F)ccc4C3)sc2n1` [Example 2-1, 3-Amino-N-((3R)-7-(9,9-difluoro-3,7-diazabicyclo[3.3.1]nonan-3-yl)chroman-3-yl)-6-methylthieno[2,3-b]pyridine-2-carboxamide], the IC50 was in the range of 1 to 50 nM.
To `Cc1cc(C(F)(F)F)c2c(N)c(C(=O)N[C@H]3COc4cc(N5CC6CNCC(C5)C6(F)F)ccc4C3)sc2n1` [Example 2-22, 3-amino-N-((3R)-7-(9,9-difluoro-3,7-diazabicyclo[3.3.1]nonan-3-yl)chroman-3-yl)-6-methyl-4-(trifluoromethyl)thieno[2,3-b]pyridine-2-carboxamide] belongs 1 to 50 nM; to `Cc1cc(C)c2c(N)c(C(=O)N[C@H]3COc4c(C#N)c(N5CCNCC5)cc(F)c4C3)sc2n1` [Example 2-31, (R)-3-amino-N-(8-cyano-5-fluoro-7-(piperazin-1-yl)chroman-3-yl)-4,6-dimethylthieno[2,3-b]pyridine-2-carboxamide], 1 to 50 nM; to `Cc1ccc2c(N)c(C(=O)N[C@@H]3COc4cc(N5CCNCC5)c(OC(F)(F)F)cc4C3)sc2n1` (single isomer, unassigned) [Example 1-32], 50 to 200 nM.
The same measure for `Nc1c(C(=O)N[C@H]2COc3cc(N4CC5CC(C4)N5)ccc3C2)sc2nc(F)ccc12` [Example 2-14, N-((3R)-7-(3,6-diazabicyclo[3.1.1]heptan-3-yl)chroman-3-yl)-3-amino-6-fluorothieno[2,3-b]pyridine-2-carboxamide]: 1 to 50 nM; for `Cc1cnc2c(N)c(C(=O)N[C@@H]3CCc4c(ccc(N5CCNCC5)c4C)C3)sc2n1` (single isomer, unassigned) [Example 2-37]: 1 to 50 nM.
The same measure for `[2H]C([2H])([2H])O[C@H]1CN(c2ccc3c(c2)OC[C@H](NC(=O)c2sc4nc(C)ccc4c2N)C3)C[C@@H]1N` [Example 2-38, 3-amino-N-((R)-7-((3S,4S)-3-amino-4-(methoxy-d3)pyrrolidin-1-yl)chroman-3-yl)-6-methylthieno[2,3-b]pyridine-2-carboxamide]: 50 to 200 nM.
Regarding `Cc1nc2sc(C(=O)N[C@@H]3COc4cc(N5CCNCC5)cc(F)c4C3)c(N)c2s1` (single isomer, unassigned) [Example 1-38], the IC50 is 1 to 50 nM.
The same measure for `Cc1cc(C(F)(F)F)c2c(N)c(C(=O)N[C@H]3COc4cc(N5CC6CC(C5)N6)ccc4C3)sc2n1` [Example 2-21]: 1 to 50 nM; for `Cc1cc(C(F)(F)F)c2c(N)c(C(=O)N[C@H]3COc4cc(N5CC6CNCC(C5)O6)ccc4C3)sc2n1` [Example 2-23, N-((3R)-7-(9-oxa-3,7-diazabicyclo[3.3.1]nonan-3-yl)chroman-3-yl)-3-amino-6-methyl-4-(trifluoromethyl)thieno[2,3-b]pyridine-2-carboxamide]: 1 to 50 nM; for `Cc1ccc2c(N)c(C(=O)N[C@H]3COc4cc(N5CCNC[C@@H]5C)ccc4C3)sc2n1` [Example 2-4, 3-amino-6-methyl-N-((R)-7-((S)-2-methylpiperazin-1-yl)chroman-3-yl)thieno[2,3-b]pyridine-2-carboxamide]: 1 to 50 nM.

For the origin of these results see patent US11524966B1 (Valo Early Discovery, Inc., priority 2017, dated 2022).
